This note sets out measurements from ChEMBL document CHEMBL1201862, “PubChem BioAssay data set” (2004).

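Step 1: Grow cells in 96-well plates. Step 2: Expose to compound for 48 hours at 5 concentrations. Step 3: Interpolate endpoints linearly; if unreached, use highest concentration. GI50 = concentration required for 50% inhibition of growth.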 Calls of active or inactive are those of the source. Cut-off read from the data, not from the text of the source: active = GI50 up to about 1.1 µM and inactive = higher.

Some test systems named below: A498; BT-549; HL-60; HOP-62; HT-29; IGROV-1; LOX IMVI; MCF7; MOLT-4; NCI-H226; OVCAR-3; RPMI-8226; SF-539; SK-MEL-28; UACC-257; UACC-62; ACHN; SK-MEL-2; T47D.
Assay in all cases: NCI anticancer screen, dose series, 48 h

Turning to `COc1ccc(-c2cc(O)c3nc4ccccc4n3c2)cc1`, the GI50 in the assay on A498 is > 100 µM (inactive); in the assay on BT-549, > 100 µM (inactive); in the assay on HL-60 it was > 100 µM (inactive); with HOP-62 it was > 100 µM (inactive); in the assay on HT-29 it was > 100 µM (inactive); in the assay with IGROV-1, 71 µM (inactive). The GI50 in the assay with LOX IMVI, in the assay on MCF7, in the assay on MOLT-4, in the assay with NCI-H226, in the assay with OVCAR-3 and in the assay on RPMI-8226 was > 100 µM (inactive) throughout. Besides, the GI50 with SF-539, in the assay on SK-MEL-28, with UACC-257 and with UACC-62 was > 100 µM (inactive) each time.
For `CC[C@H]1C[C@@H](O)[C@@H]2[C@H](O)[C@H](O)CN2C1`, the GI50 with ACHN, in the assay with HL-60, in the assay with HT-29, in the assay on IGROV-1, in the assay on LOX IMVI and with MCF7 was > 100 µM (inactive) in each case. Also, the GI50 in the assay with MOLT-4, in the assay with NCI-H226, in the assay with OVCAR-3, with RPMI-8226, with SF-539 and in the assay with SK-MEL-28 was > 100 µM (inactive) throughout. Moreover, the GI50 in the assay on SK-MEL-2, with T47D and in the assay on UACC-257 was > 100 µM (inactive) each time.
In the case of `COc1ccc(C2=NN(C(=O)c3ccc(Cl)cc3)C(O)(c3cc(F)c(Cl)cc3Cl)C2)cc1OC` (stereo not drawn), the GI50 in the assay with A498 is 5.2 µM (inactive); in the assay with ACHN it was 14.9 µM (inactive); in the assay with HL-60, 0.495 µM (active); in the assay with HOP-62 it was 99.8 µM (inactive); in the assay with HT-29, 4.29 µM (inactive); with IGROV-1, 35.1 µM (inactive). In addition, the GI50 was 37.9 µM (inactive) with LOX IMVI; 4.61 µM (inactive) in the assay on MCF7; 4.13 µM (inactive) with MOLT-4; > 100 µM (inactive) in the assay with NCI-H226; 41.8 µM (inactive) with OVCAR-3; 6.03 µM (inactive) in the assay with RPMI-8226. Further, the GI50 with SF-539 was > 100 µM (inactive); in the assay on SK-MEL-28 it was > 100 µM (inactive); with SK-MEL-2, 78.7 µM (inactive); in the assay with T47D, 6.27 µM (inactive); in the assay with UACC-257, 31.3 µM (inactive).
`CC[C@]1(Cc2ccc(OC)c(OC)c2)CN(S(=O)(=O)c2ccc(C)cc2)C[C@@H]1OC(C)=O`: the GI50 with A498 is > 100 µM (inactive); in the assay with ACHN, > 100 µM (inactive); with HL-60, > 100 µM (inactive); in the assay with HOP-62 it was 33 µM (inactive); in the assay on HT-29, 96.8 µM (inactive); with IGROV-1 it was 85.5 µM (inactive). The GI50 with LOX IMVI is > 100 µM (inactive); with MCF7, > 100 µM (inactive); with MOLT-4, > 100 µM (inactive); in the assay with NCI-H226, > 100 µM (inactive); in the assay on OVCAR-3, 67.8 µM (inactive); in the assay on RPMI-8226, > 100 µM (inactive). Further, the GI50 in the assay with SF-539 is 69.5 µM (inactive); in the assay on SK-MEL-28 it was > 100 µM (inactive); with SK-MEL-2, > 100 µM (inactive); with T47D, 58.5 µM (inactive); in the assay with UACC-257, > 100 µM (inactive); in the assay with UACC-62 it was > 100 µM (inactive).
Take `Cc1ccc2nc(-c3ccc(N)c(I)c3)sc2c1`: the GI50 with A498 was 20.4 µM (inactive); with ACHN, 20.8 µM (inactive); in the assay on BT-549, 97.7 µM (inactive); with HL-60, 12.9 µM (inactive); in the assay on HOP-62 it was 28.8 µM (inactive); in the assay with HT-29 it was 18.9 µM (inactive). Further, the GI50 with MOLT-4 is 10.4 µM (inactive); with NCI-H226, 16 µM (inactive); in the assay on OVCAR-3, 21.8 µM (inactive); in the assay on SF-539, 23.3 µM (inactive); in the assay on SK-MEL-28 it was > 100 µM (inactive); in the assay on SK-MEL-2 it was 17.9 µM (inactive). Moreover, the values for the GI50 with UACC-257 and in the assay on UACC-62 were 23.7 µM (inactive) and 32.5 µM (inactive), respectively.
Regarding `Clc1nc(Cl)c(Cl)c(-c2ccccc2)n1`, the GI50 is 17.4 µM (inactive) in the assay with ACHN; 2.41 µM (inactive) in the assay with BT-549; > 100 µM (inactive) in the assay with HL-60; 4.03 µM (inactive) in the assay on HOP-62; 1.68 µM (inactive) in the assay with HT-29; 15.4 µM (inactive) in the assay with IGROV-1. The GI50 is 1.86 µM (inactive) with LOX IMVI; 7.05 µM (inactive) in the assay with MCF7; 1.58 µM (inactive) in the assay with MOLT-4; 24.3 µM (inactive) in the assay with NCI-H226; 2.05 µM (inactive) in the assay on OVCAR-3; 5.24 µM (inactive) with RPMI-8226. Besides, the GI50 is 11.8 µM (inactive) in the assay with SF-539, 16 µM (inactive) in the assay with SK-MEL-28, 15.4 µM (inactive) with SK-MEL-2 and 20.5 µM (inactive) with UACC-257.
As to `CCN(CC)c1cc2c3c(c1)CCCN3CCC2`, the GI50 in the assay with A498, in the assay with ACHN, in the assay on HL-60, in the assay on HOP-62, with HT-29 and in the assay with IGROV-1 was > 10 µM (inactive) throughout. Further, the GI50 in the assay on LOX IMVI, in the assay on MCF7, in the assay with MOLT-4, in the assay on NCI-H226, in the assay with OVCAR-3 and in the assay with RPMI-8226 was > 10 µM (inactive) in each case. Moreover, the GI50 in the assay with SF-539, with SK-MEL-28, with SK-MEL-2, in the assay on T47D, in the assay with UACC-257 and in the assay on UACC-62 was > 10 µM (inactive) throughout.
With `Nc1ncc2c(n1)-c1ccccc1OC2N1CCOCC1` (stereo not drawn), the GI50 is > 100 µM (inactive) with ACHN; 44.5 µM (inactive) in the assay on HL-60; > 100 µM (inactive) in the assay on HOP-62; > 100 µM (inactive) in the assay with HT-29; > 100 µM (inactive) in the assay with IGROV-1; > 100 µM (inactive) in the assay on LOX IMVI. Also, the GI50 with MCF7, with MOLT-4, in the assay on NCI-H226, with OVCAR-3, with RPMI-8226 and in the assay with SF-539 was > 100 µM (inactive) each time. For the same molecule, the GI50 with SK-MEL-28, in the assay on SK-MEL-2, in the assay on UACC-257 and in the assay with UACC-62 was > 100 µM (inactive) each time.
Turning to `CNC(=O)c1nnn(C2CCCCC2)c1S`, the GI50 in the assay with A498, with ACHN, in the assay on HL-60, with HOP-62, with HT-29 and in the assay on IGROV-1 was > 100 µM (inactive) throughout. In addition, the GI50 with LOX IMVI was > 100 µM (inactive); with MCF7 it was > 100 µM (inactive); in the assay with MOLT-4 it was > 100 µM (inactive); with NCI-H226, > 100 µM (inactive); in the assay with OVCAR-3, 0.0885 µM (active); with RPMI-8226, > 100 µM (inactive). For the same molecule, the GI50 was 6.11 µM (inactive) in the assay with SF-539; > 100 µM (inactive) with SK-MEL-28; > 100 µM (inactive) in the assay with SK-MEL-2; > 100 µM (inactive) in the assay with T47D; > 100 µM (inactive) with UACC-257; > 100 µM (inactive) with UACC-62.
